In data set [1] the target is T1, human EGF-R (Homo sapiens, UniProt P00533).
T1 construct: expressed in transfected cells; host or cells: F/L-HERc cells (murine IL-3-dependent FDC-P1 line transduced with an LXSN retroviral vector carrying human EGF-R cDNA; packaging line GP+E86)
Put plainly: Inhibition of EGF-dependent proliferation of F/L-HERc cells (Cell Titer 96 assay). As to conditions: F/L-HERc cells (murine IL-3-dependent line expressing human EGF-R), stimulated with EGF 20 ng/ml, 48 hours at 37° C. The class given is cell-based. The source says:
A cell line of murine origin dependent on interleukin-3-(IL-3) which was genetically modified to express functional human EGF-R was used here. The proliferation of these cells known as F/L-HERc can therefore be stimulated either by murine IL-3 or by EGF (cf T. von Ruiden et al., EMBO J. 7, 2749-2756 (1988) and J. H. Pierce et al., Science 239, 628-631 (1988)).
The starting material used for the F/L-HERc cells was the cell line FDC-P1, the production of which has been described by T. M. Dexter et al., J. Exp. Med. 152. 1036-1047 (1980). Alternatively, however, other growth-factor-dependent cells may also be used (cf., e.g., J.H. Pierce et al., Science 239, 628-631 (1988); H. Shibuya et al., Cell 70, 57-67 (1992); and W. S. Alexander et al., EMBO J. 10, 3683-3691 (1991)). For expressing the human EGF-R cDNA (cf A. Ullrich et al., Nature 309, 418-425 (1984)) recombinant retroviruses were used as described by T. von Ruiden et al., EMBO J. 7, 2749-2756 (1988), except that the retroviral vector LXSN (cf A. D. Miller et al., BioTechniques 7, 980-990 (1989)) was used for the expression of the EGF-R cDNA and the line GP+E86 (cf D. Markowitz et al., J. Virol. 62, 1120-1124 (1988)) was used as the packaging cell.
The test was performed as follows:
F/L-HERc cells were cultivated in RPMI/1640 medium (BioWhittaker), supplemented with 10% fetal calf serum (FCS, Boehringer Mannheim), 2 mM glutamine (BioWhittaker), standard antibiotics and 20 ng/ml of human EGF (Promega), at 37° C. and 5% CO2. In order to investigate the inhibitory activity of the compounds according to the invention, 1.5×10^4 cells per well were cultivated in triplicate in 96-well plates in the above medium (200 μl), the cell proliferation being stimulated with either EGF (20 ng/ml) or murine IL-3. The IL-3 used was obtained from culture supernatants of the cell line X63/0 mIL-3 (cf H. Karasuyama et al., Eur. J. Immunol. 18, 97-104 (1988)). The compounds according to the invention were dissolved in 100% dimethylsulfoxide (DMSO) and added to the cultures in various dilutions, the maximum DMSO concentration being 1%. The cultures were incubated for 48 hours at 37° C.
In order to determine the inhibitory activity of the compounds according to the invention the relative cell number was measured in O.D. units using the Cell Titer 96™ Aqueous Non-Radioactive Cell Proliferation Assay (Promega). The relative cell number was calculated as a percentage of the control (F/LHERc cells without inhibitor) and the concentration of active substance which inhibits the proliferation of the cells by 50% (IC50) was derived therefrom.

This is an account of results in patent US20020082420A1, “Bicyclic heterocycles, pharmaceutical compositions containing them, their use, and processes for preparing them” (priority 2000, published 2002).

What is called melting point is the temperature of the solid-liquid transition. As a reminder, the IC50 is the concentration that gives 50% inhibition. A higher IC50 goes with weaker potency.

T1 sequence (P00533 25-1210): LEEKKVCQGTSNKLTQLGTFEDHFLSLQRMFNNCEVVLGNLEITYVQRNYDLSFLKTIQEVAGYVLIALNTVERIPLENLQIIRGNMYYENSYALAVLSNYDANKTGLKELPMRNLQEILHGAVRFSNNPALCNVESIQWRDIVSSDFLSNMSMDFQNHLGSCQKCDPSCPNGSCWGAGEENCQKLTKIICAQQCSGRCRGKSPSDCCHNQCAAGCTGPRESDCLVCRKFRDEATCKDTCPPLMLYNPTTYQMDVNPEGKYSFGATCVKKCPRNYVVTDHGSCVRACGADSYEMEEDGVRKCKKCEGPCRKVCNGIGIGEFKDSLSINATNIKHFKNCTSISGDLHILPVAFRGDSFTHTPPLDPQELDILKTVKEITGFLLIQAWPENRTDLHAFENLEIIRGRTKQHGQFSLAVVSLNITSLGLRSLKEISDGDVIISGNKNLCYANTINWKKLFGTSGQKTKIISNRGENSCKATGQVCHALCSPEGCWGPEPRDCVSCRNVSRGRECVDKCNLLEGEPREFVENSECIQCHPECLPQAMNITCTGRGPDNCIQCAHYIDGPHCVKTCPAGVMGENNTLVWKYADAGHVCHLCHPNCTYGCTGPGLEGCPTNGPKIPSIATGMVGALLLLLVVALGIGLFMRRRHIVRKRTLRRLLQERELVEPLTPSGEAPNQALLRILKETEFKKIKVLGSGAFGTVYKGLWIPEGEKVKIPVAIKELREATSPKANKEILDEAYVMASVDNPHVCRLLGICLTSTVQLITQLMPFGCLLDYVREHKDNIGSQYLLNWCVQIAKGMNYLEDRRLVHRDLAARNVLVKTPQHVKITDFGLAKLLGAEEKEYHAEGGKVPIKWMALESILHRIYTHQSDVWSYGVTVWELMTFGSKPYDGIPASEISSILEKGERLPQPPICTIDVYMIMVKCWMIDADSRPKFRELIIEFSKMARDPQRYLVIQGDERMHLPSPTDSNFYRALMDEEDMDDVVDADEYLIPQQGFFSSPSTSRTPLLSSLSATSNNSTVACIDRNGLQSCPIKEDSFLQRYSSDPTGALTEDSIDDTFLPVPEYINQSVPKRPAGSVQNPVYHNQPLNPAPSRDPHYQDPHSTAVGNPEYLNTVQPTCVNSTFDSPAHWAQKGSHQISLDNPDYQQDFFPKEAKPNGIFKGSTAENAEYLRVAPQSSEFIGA

As for `CCOC(=O)C1CCN(CCNc2ncc3ncnc(Nc4ccc(F)c(Cl)c4)c3n2)CC1` [2(14), 4-[(3-chloro-4-fluorophenyl)amino]-6-{2-[4-(ethoxycarbonyl)piperidin-1-yl]ethylamino}pyrimido[5,4-d]pyrimidine], the melting point was in the range of 137 to 139 °C. Also, inhibition in data set [1] was half-maximal at 1.15 µM (IC50).

On to `CN(CC(=O)O)[C@H]1CC[C@H](Nc2ncc3ncnc(Nc4ccc(F)c(Cl)c4)c3n2)CC1` [1(3), 4-[(3-chloro-4-fluorophenyl)amino]-6-({trans-4-[N-(carboxymethyl)-N-methylamino]cyclohex-1-yl}amino)pyrimido[5,4-d]pyrimidine], for which the melting point lay in the range of 220 to 228 °C. The IC50 in data set [1] turned out to be 0.32 µM.

In the case of `COC(=O)CN1CCC(Nc2ncc3ncnc(Nc4cccc(Br)c4)c3n2)CC1` [2(17)], the melting point was found to be 144 °C. In addition, the IC50 in data set [1] came out at 0.03 µM.

On to `COC(=O)CN1CCC(Nc2ncc3ncnc(Nc4cc(Br)c(N)c(Br)c4)c3n2)CC1` [2(27), 4-[(4-amino-3,5-dibromophenyl)amino]-6-({1-[(methoxycarbonyl)methyl]piperidin-4-yl}amino)pyrimido[5,4-d]pyrimidine], for which the melting point stood at 167 °C. The molecule also registered an IC50 in data set [1] of 0.077 µM.

Turning to `O=C(O)CN1CCN(c2ncc3ncnc(Nc4ccc(F)c(Cl)c4)c3n2)CC1` [Example 1(6), 4-[(3-chloro-4-fluorophenyl)amino]-6-[4-(carboxymethyl)piperazin-1-yl]pyrimido[5,4-d]pyrimidine], the melting point was 240 °C (dec.). Moreover, in data set [1], the IC50 came out at 2.3 µM.

Molecule `COC(=O)CN1CCC(Nc2ncc3ncnc(Nc4ccc(F)c(Cl)c4)c3n2)CC1` [2(1), 4-[(3-chloro-4-fluorophenyl)amino]-6-({1-[(methoxycarbonyl)methyl]piperidin-4-yl}amino)pyrimido [5,4-d]pyrimidine] yielded a melting point of 162 to 164 °C. Further, in data set [1], the IC50 is 0.015 µM.

For `COC(=O)CN1CCC(Nc2ncc3ncnc(Nc4cccc(C)c4)c3n2)CC1` [2(24), 4-[(3-methylphenyl)amino]-6-({1-[(methoxycarbonyl)methyl]piperidin-4-yl}amino)pyrimido[5,4-d]pyrimidine], the melting point is 164 °C. This molecule yielded an IC50 in data set [1] of 0.073 µM.
